Like-named read-outs stand apart in the source and are kept apart here. Values belong to the compound of their own block, whether it stands above or below them.
Assays:
STAT3 protein = biological target: T1, STAT3 protein (Homo sapiens, UniProt P40763); test: In vitro competitive STAT3 binding assay (fluorescence polarization)
T1 construct: human STAT3 protein (residues 122-722) fused to His-tag; His-tag
Method in brief: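 FP competition: His-tagged human STAT3 (122-722), 150 nM, with 5 nM 5-Fam-labelled pYLPQTV phosphopeptide tracer (STT2) and titrated inhibitor, read after 2-3 h. IC50 = concentration displacing 50% of tracer, by nonlinear least-squares fit.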

[1] = system: MDA-MB-468 cancer cell line; test: Cell growth assay (WST-8); type: cell-based; conditions: Homo sapiens, MDA-MB-468, 96 h; WST-8, 4 days; read-out: Inhibition of cell growth IC50, MDA-MB-468 cancer cell line
Method in brief: (§1)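 Cells (3000–4000/well) grown 4 days with varied compound concentrations, then WST-8 dye added for 1–3 h and absorbance read at 450 nm. Growth inhibition expressed as sample-to-control absorbance ratio.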

[2] = system: MDA-MB-231 cancer cell line; test: Cell growth assay (WST-8); type: cell-based; conditions: Homo sapiens, MDA-MB-231, 96 h; WST-8, 4 days; read-out: Inhibition of cell growth IC50, MDA-MB-231 cancer cell line
Method in brief: as §1

[3] = FP competitive binding, fluorescently tagged STT2 peptide tracer, read-out: Binding affinities to STAT3 IC50

T1 sequence (P40763 122-722): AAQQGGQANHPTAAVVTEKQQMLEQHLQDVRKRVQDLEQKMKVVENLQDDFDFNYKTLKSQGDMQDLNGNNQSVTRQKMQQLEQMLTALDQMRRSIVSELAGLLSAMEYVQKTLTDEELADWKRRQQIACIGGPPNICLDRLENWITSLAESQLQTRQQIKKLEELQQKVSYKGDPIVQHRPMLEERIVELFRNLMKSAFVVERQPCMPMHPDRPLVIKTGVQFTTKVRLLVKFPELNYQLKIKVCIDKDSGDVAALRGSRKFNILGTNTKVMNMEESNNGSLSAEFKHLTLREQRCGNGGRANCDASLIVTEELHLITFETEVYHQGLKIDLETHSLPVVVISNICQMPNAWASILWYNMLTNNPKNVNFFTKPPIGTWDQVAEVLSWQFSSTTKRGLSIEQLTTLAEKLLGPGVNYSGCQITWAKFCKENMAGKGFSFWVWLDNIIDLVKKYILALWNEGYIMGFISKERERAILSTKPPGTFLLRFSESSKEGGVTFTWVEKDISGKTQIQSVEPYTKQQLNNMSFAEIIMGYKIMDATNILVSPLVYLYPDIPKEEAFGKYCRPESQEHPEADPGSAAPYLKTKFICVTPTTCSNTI

Compound: CN(C)[C@@H](Cc1ccc(OCP(=O)(O)O)cc1)C(=O)NC1CCCC[C@H]2CC[C@@H](C(=O)N[C@@H](Cc3c[nH]cn3)C(=O)NCCc3ccccc3)N2C1=O (stereo in doubt) [Example 34]
IC50 (STAT3 protein; [3]): < 30 µM
IC50 [1]: > 100 µM
IC50 [2]: > 100 µM

IC50 (STAT3 protein; [3]): > 100 µM
IC50 [1]: > 100 µM
IC50 [2]: > 100 µM
Compound: CP(=O)(O)CCCCCC(=O)N[C@H]1CCCCC2CC[C@@H](C(=O)N[C@@H](CCC(N)=O)C(=O)NCc3ccccc3)N2C1=O (stereo partly drawn)

Compound: CCCCCCCCCCCCCCCCN1CCN(CCC(=O)N[C@@H](Cc2ccc(OP(=O)(O)O)cc2)C(=O)N[C@H]2CCCCC3CC[C@@H](C(=O)NCCc4cn[nH]c4)N3C2=O)CC1 (stereo partly drawn)
IC50 (STAT3 protein; [3]): < 5 µM
IC50 [1]: < 20 µM
IC50 [2]: < 20 µM

Compound: CN(C)[C@@H](Cc1ccc(OP(=O)(O)O)cc1)C(=O)N[C@H]1CCCCC2CC[C@@H](C(=O)N[C@@H](CCC(N)=O)C(=O)NCc3ccccc3)N2C1=O (stereo in doubt) [Example 36]
IC50 (STAT3 protein; [3]): < 5 µM
IC50 [1]: > 100 µM
IC50 [2]: > 100 µM

Compound: NC(=O)CC[C@H](NC(=O)[C@@H]1CCC2CCCC[C@H](NC(=O)[C@@H](N)Cc3ccc(OP(=O)(O)O)cc3)C(=O)N21)C(=O)NCc1ccccc1 (stereo partly drawn)
IC50 (STAT3 protein): < 1 µM
IC50 [1]: > 100 µM
IC50 [2]: > 20 µM

Compound: CCCCCCCCCCCCCCCCN1CCN(CCC(=O)N[C@@H](Cc2ccc(OP(=O)(O)O)cc2)C(=O)N[C@H]2CCCCC3CC[C@@H](C(=O)N[C@@H](Cc4c[nH]cn4)C(=O)NCc4ccccc4)N3C2=O)CC1 (stereo partly drawn)
IC50 (STAT3 protein; [3]): < 5 µM
IC50 [1]: < 30 µM
IC50 [2]: < 30 µM

Compound: CCOC(=O)C(Oc1ccc(C[C@H](NC(C)=O)C(=O)N[C@H]2CCCCC3CC[C@@H](C(=O)N[C@@H](CCC(N)=O)C(=O)NCc4ccccc4)N3C2=O)cc1)C(=O)OCC (stereo partly drawn)
IC50 (STAT3 protein; [3]): > 100 µM
IC50 [1]: > 100 µM
IC50 [2]: > 30 µM

IC50 (STAT3 protein; [3]): > 10 µM
IC50 [1]: > 100 µM
IC50 [2]: > 100 µM
Compound: CC(=O)NCCC[C@H](NC(=O)[C@@H]1CCC2CCCC[C@H](NC(=O)[C@H](Cc3ccc(OC(C(=O)O)C(=O)O)cc3)N(C)C)C(=O)N21)C(=O)NCc1ccccc1 (stereo partly drawn)

IC50 (STAT3 protein; [3]): > 100 µM
IC50 [1]: > 100 µM
IC50 [2]: > 30 µM
Compound: O=C(O)CCc1ccc(CCC(=O)N[C@H]2CCCC[C@H]3CC[C@@H](C(=O)NCC[C@H](O)CO)N3C2=O)cc1 [Example 4]

Compound: CCCCCCCCCCCCCCCCN1CCN(CCC(=O)N[C@@H](Cc2ccc(OP(=O)(O)O)cc2)C(=O)N[C@H]2CCCCC3CC[C@@H](C(=O)NCCc4cnc[nH]4)N3C2=O)CC1 (stereo partly drawn)
IC50 (STAT3 protein; [3]): < 10 µM
IC50 [1]: < 10 µM
IC50 [2]: < 10 µM

Compound: CNC(=O)CCCNC(=O)[C@@H]1CC[C@@H]2CCCC[C@H](NC(=O)[C@H](Cc3ccc(OP(=O)(O)O)cc3)NC(=O)OCc3ccccc3)C(=O)N21 [Example 17]
IC50 (STAT3 protein; [3]): < 30 µM
IC50 [1]: > 100 µM
IC50 [2]: > 100 µM

Compound: CCCCCCCCCCCCCCCCN1CCN(CCC(=O)N[C@@H](Cc2ccc(OP(=O)(O)O)cc2)C(=O)N[C@H]2CCCCC3CC[C@@H](C(=O)N[C@@H](CCC(N)=O)C(=O)NCc4ccccc4)N3C2=O)CC1 (stereo partly drawn)
IC50 (STAT3 protein; [3]): < 1 µM
IC50 [1]: < 10 µM
IC50 [2]: < 10 µM

Compound: CN[C@H](Cc1ccc(OCP(=O)(O)O)cc1)C(=O)N[C@H]1CCCCC2CC[C@@H](C(=O)N[C@@H](Cc3c[nH]cn3)C(=O)NCc3ccccc3)N2C1=O (stereo partly drawn)
IC50 (STAT3 protein; [3]): < 100 µM
IC50 [1]: > 100 µM
IC50 [2]: > 100 µM

Compound: COP(=O)(OC)Oc1ccc(C[C@H](N)C(=O)N[C@H]2CCCCC3CC[C@@H](C(=O)N[C@@H](C)C(=O)NCc4ccccc4)N3C2=O)cc1 (stereo partly drawn)
IC50 (STAT3 protein): > 100 µM
IC50 [1]: > 100 µM
IC50 [2]: > 50 µM

Compound: CC(=O)N[C@@H](Cc1ccc(OP(=O)(O)O)cc1)C(=O)N[C@H]1CCCC[C@H]2CC[C@@H](C(=O)N[C@@H](CCC(N)=O)C(=O)NCc3ccccc3)N2C1=O [Example 1]
IC50 (STAT3 protein; [3]): < 1 µM
IC50 [1]: > 100 µM
IC50 [2]: > 20 µM

Compound: CCCCCCCCCCCCCCCC(=O)N[C@@H](Cc1ccc(OP(=O)(O)O)cc1)C(=O)NC1CCCC[C@H]2CC[C@@H](C(=O)N[C@@H](Cc3c[nH]cn3)C(=O)NCc3ccccc3)N2C1=O (stereo partly drawn) [Example 38]
IC50 (STAT3 protein): < 100 µM
IC50 [1]: < 60 µM
IC50 [2]: < 50 µM

Compound: CCCCCCCCCCCCCCCCN1CCN(CCC(=O)N[C@@H](Cc2ccc(OP(=O)(O)O)cc2)C(=O)N[C@H]2CCCCC3CC[C@@H](C(=O)NCCCCN(C)C)N3C2=O)CC1 (stereo partly drawn)
IC50 (STAT3 protein; [3]): < 20 µM
IC50 [1]: < 50 µM
IC50 [2]: < 100 µM

Compound: CCCCCCCCCCCCCCCC(=O)N[C@H](Cc1ccc(OCP(=O)(O)O)cc1)C(=O)N[C@H]1CCCCC2CC[C@@H](C(=O)N[C@@H](CCC(N)=O)C(=O)NCc3ccccc3)N2C1=O (stereo partly drawn)
IC50 (STAT3 protein): < 5 µM
IC50 [1]: < 50 µM
IC50 [2]: < 100 µM

Compound: NC(=O)CCCNC(=O)[C@@H]1CCC2CCCC[C@H](NC(=O)[C@H](Cc3ccc(OP(=O)(O)O)cc3)NC(=O)OCc3ccccc3)C(=O)N21 (stereo partly drawn) [Example 16]
IC50 (STAT3 protein; [3]): < 30 µM
IC50 [1]: > 100 µM
IC50 [2]: > 100 µM

Compound: C[C@H](NC(=O)[C@@H]1CC[C@@H]2CCCC[C@H](NC(=O)[C@H](Cc3ccc(OP(=O)(O)O)cc3)NC(=O)OCc3ccccc3)C(=O)N21)C(=O)NCc1ccccc1 [Example 8]
IC50 (STAT3 protein): > 20 µM
IC50 [1]: > 10 µM
IC50 [2]: > 10 µM

Compound: CN(C)[C@@H](Cc1ccc(OC(C(=O)O)C(=O)O)cc1)C(=O)N[C@H]1CCCCC2CC[C@@H](C(=O)N[C@@H](Cc3c[nH]cn3)C(=O)NCc3ccccc3)N2C1=O (stereo partly drawn)
IC50 (STAT3 protein; [3]): > 10 µM
IC50 [1]: > 100 µM
IC50 [2]: > 100 µM

Reference: US20110319362A1, “STAT3 LIGANDS AND THERAPEUTIC USES THEREOF” (priority 2008, published 2011)
